Experimental data published in US8252821B2, “Bioavailable capsule compositions of amorphous alpha-(N-sulfonamido)acetamide compound” (Bristol-Myers Squibb Company, priority 2009, dated 2012).

Legend:
Assay type in all cases: physicochemical
[1] = Aqueous solubility of the active compound; conditions: water; at about room temperature
[2] = Solubility of solubilized capsule formulations in FaSSIF at 37° C.; conditions: FaSSIF pH 6.5, 37° C.
[3] = Solubility of solubilized capsule formulations in FeSSIF at 37° C.; conditions: FeSSIF pH 5.0, 37° C.
[4] = Solubility of solubilized capsule formulations in SGF at 37° C.

Question: What does the source list for `NC(=O)[C@@H](CCC(F)(F)F)N(Cc1ccc(-c2ncon2)cc1F)S(=O)(=O)c1ccc(Cl)cc1` [Active Compound, (2R)-2-[[(4-chlorophenyl)sulfonyl][[2-fluoro-4-(1,2,4-oxadiazol-3-yl)phenyl]methyl]amino]-5,5,5-trifluoropentanamide]?
Answer: solubility [1]: < 1 µg/mL; ACTIVE COMPOUND Concentration ([2]; 5 Min.): 2.5 µg/mL; ACTIVE COMPOUND Concentration ([2]; 15 Min.): 3.8 µg/mL; ACTIVE COMPOUND Concentration ([2]; 24 Hr.): 7.7 µg/mL; ACTIVE COMPOUND Concentration ([2]; 30 Min.): 4.6 µg/mL; ACTIVE COMPOUND Concentration ([2]; 60 Min.): 6.0 µg/mL; ACTIVE COMPOUND Concentration ([3]; 5 Min.): 9.7 µg/mL; ACTIVE COMPOUND Concentration ([3]; 15 Min.): 11.5 µg/mL; ACTIVE COMPOUND Concentration ([3]; 30 Min.): 13.3 µg/mL; ACTIVE COMPOUND Concentration ([3]; 60 Min.): 15.3 µg/mL; ACTIVE COMPOUND Concentration ([4]; 5 Min.): 0.0 µg/mL; ACTIVE COMPOUND Concentration ([4]; 15 Min.): 4.6 µg/mL; ACTIVE COMPOUND Concentration ([4]; 24 Hr.): 1.0 µg/mL; ACTIVE COMPOUND Concentration ([4]; 30 Min.): 1.6 µg/mL; ACTIVE COMPOUND Concentration ([4]; 60 Min.): 1.0 µg/mL
